Measured values taken from PubChem BioAssay AID2060904 (Molecular Pharmacology Branch, DTP, NCI, 2025).
pIC50: −log10 of the molar value.

System: 349418-098-R-PDC complex spheroid viability
Experiment: Anticancer human tumor 349418-098-R-PDC patient-derived lung adenocarcinoma cell line growth inhibition [RAS]
Conditions: for viability, T/C: stronger effect = lower value
Procedure, shortened: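 Tumour cells grown as complex spheroids with HUVEC endothelial cells and mesenchymal stem cells, treated with RAS pathway inhibitor combinations. Each agent spans half-log steps from near clinical Cmax, or 10 microM where Cmax is unknown.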

[1] = curve of first compound, second compound 0.000949 µM
[2] = curve of first compound, second compound 0.003 µM
[3] = curve of first compound, second compound 0.00949 µM
[4] = curve of first compound, second compound 0.03 µM
[5] = curve of first compound, second compound 0.0949 µM
[6] = curve of first compound, second compound 0.3 µM
[7] = second compound 0.000949 µM, first compound 0.0316 µM
[8] = second compound 0.000949 µM, first compound 0.1 µM
[9] = second compound 0.000949 µM, first compound 0.316 µM
[10] = second compound 0.000949 µM, first compound 1 µM
[11] = second compound 0.003 µM, first compound 0.0316 µM
[12] = second compound 0.003 µM, first compound 0.1 µM
[13] = second compound 0.003 µM, first compound 0.316 µM
[14] = second compound 0.003 µM, first compound 1 µM
[15] = second compound 0.00949 µM, first compound 0.0316 µM
[16] = second compound 0.00949 µM, first compound 0.1 µM
[17] = second compound 0.00949 µM, first compound 0.316 µM
[18] = second compound 0.00949 µM, first compound 1 µM
[19] = second compound 0.03 µM, first compound 0.0316 µM
[20] = second compound 0.03 µM, first compound 0.1 µM
[21] = second compound 0.03 µM, first compound 0.316 µM
[22] = second compound 0.03 µM, first compound 1 µM
[23] = second compound 0.0949 µM, first compound 0.0316 µM
[24] = second compound 0.0949 µM, first compound 0.1 µM
[25] = second compound 0.0949 µM, first compound 0.316 µM
[26] = second compound 0.0949 µM, first compound 1 µM
[27] = second compound 0.3 µM, first compound 0.0316 µM
[28] = second compound 0.3 µM, first compound 0.1 µM
[29] = second compound 0.3 µM, first compound 0.316 µM
[30] = second compound 0.3 µM, first compound 1 µM
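Also: spheroids exposed to compound for seven days before viability readout.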

## Cc1nc(N2CCC3(CC2)COC(C)C3N)c(CO)nc1Sc1ccnc(N)c1Cl (stereo not drawn) + CCn1c(-c2cc(N3CCN(C)CC3)cnc2C(C)OC)c2c3cc(ccc31)-c1csc(n1)CC(NC(=O)C1CC1C)C(=O)N1CCCC(N1)C(=O)OCC(C)(C)C2
[1]
  pIC50: < 5.00
[2]
  pIC50: < 5.00
[3]
  pIC50: < 5.00
[4]
  pIC50: < 5.00
[5]
  pIC50: < 5.00
[6]
  pIC50: < 5.00
[7]
  viability, T/C: 90.4%
[8]
  viability, T/C: 99.3%
[9]
  viability, T/C: 88.4%
[10]
  viability, T/C: 102%
Second compound 0.000949 µM, first compound 3.16 µM
  viability, T/C: 97.2%
Second compound 0.000949 µM, first compound 10 µM
  viability, T/C: 95.7%
[11]
  viability, T/C: 114%
[12]
  viability, T/C: 103%
[13]
  viability, T/C: 104%
[14]
  viability, T/C: 103%
Second compound 0.003 µM, first compound 3.16 µM
  viability, T/C: 100%
Second compound 0.003 µM, first compound 10 µM
  viability, T/C: 95.8%
[15]
  viability, T/C: 111%
[16]
  viability, T/C: 89.2%
[17]
  viability, T/C: 97.1%
[18]
  viability, T/C: 112%
Second compound 0.00949 µM, first compound 3.16 µM
  viability, T/C: 114%
Second compound 0.00949 µM, first compound 10 µM
  viability, T/C: 115%
[19]
  viability, T/C: 96%
[20]
  viability, T/C: 106%
[21]
  viability, T/C: 105%
[22]
  viability, T/C: 99.1%
Second compound 0.03 µM, first compound 3.16 µM
  viability, T/C: 106%
Second compound 0.03 µM, first compound 10 µM
  viability, T/C: 90.6%
[23]
  viability, T/C: 104%
[24]
  viability, T/C: 114%
[25]
  viability, T/C: 79%
[26]
  viability, T/C: 92%
Second compound 0.0949 µM, first compound 3.16 µM
  viability, T/C: 102%
Second compound 0.0949 µM, first compound 10 µM
  viability, T/C: 104%
[27]
  viability, T/C: 109%
[28]
  viability, T/C: 106%
[29]
  viability, T/C: 100%
[30]
  viability, T/C: 107%
Second compound 0.3 µM, first compound 3.16 µM
  viability, T/C: 115%
Second compound 0.3 µM, first compound 10 µM
  viability, T/C: 115%

## O=C(c1ccc(F)c(F)c1Nc1ccc(I)cc1F)N1CC(O)([C@@H]2CCCCN2)C1 + C#Cc1c(F)ccc2cc(O)cc(-c3ncc4c(N5CC6CCC(C5)N6)nc(OCC56CCCN5CC(F)C6)nc4c3F)c12
Curve of first compound, second compound 0.0316 µM
  pIC50: > 8.50
Curve of first compound, second compound 0.1 µM
  pIC50: > 8.50
Curve of first compound, second compound 0.316 µM
  pIC50: > 8.50
Curve of first compound, second compound 1 µM
  pIC50: > 8.50
Curve of first compound, second compound 3.16 µM
  pIC50: > 8.50
Curve of first compound, second compound 10 µM
  pIC50: > 8.50
Second compound 0.0316 µM, first compound 0.00316 µM
  viability, T/C: 47.9%
Second compound 0.0316 µM, first compound 0.01 µM
  viability, T/C: 37.5%
Second compound 0.0316 µM, first compound 0.0316 µM
  viability, T/C: 36.9%
Second compound 0.0316 µM, first compound 0.1 µM
  viability, T/C: 15.6%
Second compound 0.0316 µM, first compound 0.316 µM
  viability, T/C: 7.05%
Second compound 0.0316 µM, first compound 1 µM
  viability, T/C: 5.82%
Second compound 0.1 µM, first compound 0.00316 µM
  viability, T/C: 44.8%
Second compound 0.1 µM, first compound 0.01 µM
  viability, T/C: 39.8%
Second compound 0.1 µM, first compound 0.0316 µM
  viability, T/C: 29.3%
Second compound 0.1 µM, first compound 0.1 µM
  viability, T/C: 14.2%
Second compound 0.1 µM, first compound 0.316 µM
  viability, T/C: 7.41%
Second compound 0.1 µM, first compound 1 µM
  viability, T/C: 4.83%
Second compound 0.316 µM, first compound 0.00316 µM
  viability, T/C: 46%
Second compound 0.316 µM, first compound 0.01 µM
  viability, T/C: 32.6%
Second compound 0.316 µM, first compound 0.0316 µM
  viability, T/C: 24.1%
Second compound 0.316 µM, first compound 0.1 µM
  viability, T/C: 13.3%
Second compound 0.316 µM, first compound 0.316 µM
  viability, T/C: 5.32%
Second compound 0.316 µM, first compound 1 µM
  viability, T/C: 5.62%
Second compound 1 µM, first compound 0.00316 µM
  viability, T/C: 38.6%
Second compound 1 µM, first compound 0.01 µM
  viability, T/C: 31.1%
Second compound 1 µM, first compound 0.0316 µM
  viability, T/C: 21.9%
Second compound 1 µM, first compound 0.1 µM
  viability, T/C: 10.9%
Second compound 1 µM, first compound 0.316 µM
  viability, T/C: 5.57%
Second compound 1 µM, first compound 1 µM
  viability, T/C: 4.89%
Second compound 3.16 µM, first compound 0.00316 µM
  viability, T/C: 36.8%
Second compound 3.16 µM, first compound 0.01 µM
  viability, T/C: 22.8%
Second compound 3.16 µM, first compound 0.0316 µM
  viability, T/C: 16%
Second compound 3.16 µM, first compound 0.1 µM
  viability, T/C: 8.92%
Second compound 3.16 µM, first compound 0.316 µM
  viability, T/C: 6.05%
Second compound 3.16 µM, first compound 1 µM
  viability, T/C: 4.36%
Second compound 10 µM, first compound 0.00316 µM
  viability, T/C: 16.8%
Second compound 10 µM, first compound 0.01 µM
  viability, T/C: 7.65%
Second compound 10 µM, first compound 0.0316 µM
  viability, T/C: 3.23%
Second compound 10 µM, first compound 0.1 µM
  viability, T/C: 4.71%
Second compound 10 µM, first compound 0.316 µM
  viability, T/C: 2.14%
Second compound 10 µM, first compound 1 µM
  viability, T/C: 0.87%

## O=C(c1ccc(F)c(F)c1Nc1ccc(I)cc1F)N1CC(O)([C@@H]2CCCCN2)C1 + CCn1c(-c2cc(N3CCN(C)CC3)cnc2C(C)OC)c2c3cc(ccc31)-c1csc(n1)CC(NC(=O)C1CC1C)C(=O)N1CCCC(N1)C(=O)OCC(C)(C)C2
[1]
  pIC50: > 8.50
[2]
  pIC50: > 8.50
[3]
  pIC50: > 8.50
[4]
  pIC50: > 8.50
[5]
  pIC50: > 8.50
[6]
  pIC50: > 8.50
Second compound 0.000949 µM, first compound 0.00316 µM
  viability, T/C: 25.6%
Second compound 0.000949 µM, first compound 0.01 µM
  viability, T/C: 15.3%
[7]
  viability, T/C: 12.3%
[8]
  viability, T/C: 7.55%
[9]
  viability, T/C: 6.32%
[10]
  viability, T/C: 4.06%
Second compound 0.003 µM, first compound 0.00316 µM
  viability, T/C: 26.8%
Second compound 0.003 µM, first compound 0.01 µM
  viability, T/C: 17.7%
[11]
  viability, T/C: 11%
[12]
  viability, T/C: 7.55%
[13]
  viability, T/C: 5.82%
[14]
  viability, T/C: 4.4%
Second compound 0.00949 µM, first compound 0.00316 µM
  viability, T/C: 20%
Second compound 0.00949 µM, first compound 0.01 µM
  viability, T/C: 7.54%
[15]
  viability, T/C: 7.52%
[16]
  viability, T/C: 5.46%
[17]
  viability, T/C: 5.26%
[18]
  viability, T/C: 4.12%
Second compound 0.03 µM, first compound 0.00316 µM
  viability, T/C: 14.1%
Second compound 0.03 µM, first compound 0.01 µM
  viability, T/C: 8.8%
[19]
  viability, T/C: 6.96%
[20]
  viability, T/C: 5.38%
[21]
  viability, T/C: 5.09%
[22]
  viability, T/C: 4.3%
Second compound 0.0949 µM, first compound 0.00316 µM
  viability, T/C: 9.09%
Second compound 0.0949 µM, first compound 0.01 µM
  viability, T/C: 6.88%
[23]
  viability, T/C: 5.8%
[24]
  viability, T/C: 5.07%
[25]
  viability, T/C: 5.29%
[26]
  viability, T/C: 4.24%
Second compound 0.3 µM, first compound 0.00316 µM
  viability, T/C: 11.8%
Second compound 0.3 µM, first compound 0.01 µM
  viability, T/C: 7.65%
[27]
  viability, T/C: 5.68%
[28]
  viability, T/C: 5.13%
[29]
  viability, T/C: 4.83%
[30]
  viability, T/C: 4.09%

## CCn1c(-c2cccnc2C(C)OC)c2c3cc(ccc31)N1CCOC(CC(NC(=O)C(C(C)C)N(C)C(=O)C3(F)CCN(C(=O)C#CC(C)(C)N(C)C)CC3)C(=O)N3CCCC(N3)C(=O)OCC(C)(C)C2)C1 (stereo not drawn)
Compound 0.003 µM
  viability, T/C: 111% [middle of 8 runs]
Compound alone, run of 05/20/2024
  pIC50: < 6.52
